According to patent US9333211B2, “Phosphaplatin mediated modulation of pigment epithelial derived factor and uses thereof” (UNIVERSITY OF HOUSTON SYSTEM, priority 2013, dated 2016):
“Also recorded” adds a separate entry of the source.

Tests used:
ARPE19 cells = assay: CellTiter-Glo Luminescent Cell Viability Assay; type: cell-based, human; conditions: 100 μM, 24 hours of treatment
Procedure: Promega's CellTiter-Glo® Luminescent Cell Viability Assay was used to determine the number of viable cells in a culture by quantification of ATP (Promega. Madison, Wis.). Briefly, ARPE19 cells, a normal human retinal pigment epithelial cell line, were seeded in a 96 well plate with 10,000-30,000 cells per well and were allowed to attach for 24 hours. Thereafter, the cells were treated with RRD2 or RRD4 at different concentrations ranging from 1 to 100 μM for 24 hours. The detection reagent was prepared per manufactures protocol and equal volume of CellTiter-Glo® reagent was added to each well of cell culture and luminescence read with integration time set for 0.25 to 1 second. The Glo titer Viability Assay has a linear range is from 0 to 50,000 cells per well. Each concentration was done in triplicate.

PEDF gene [1] = assay: PEDF gene expression, Human angiogenesis PCR array (real-time PCR); type: cell-based; conditions: A2780 cells, 24 hr, ΔΔCT vs β-actin
Procedure: Human ovarian cancer cell lines, A2780 (Fox Chase) were cultured in 100 mm^3 plates in monolayer by using RPMI medium 1640 supplemented with 10% FBS, 2 mM glutamine, 0.25 units/mL insulin and penicillin/streptomycin (100 units/ml) in a 37° C. incubator continuously gassed with 5% CO2. The cells were treated with either RRD2 and RRD4, 5 μM and 13 μM, respectively, for 24 hrs in triplicate. The cells were collected by 0.025% trypsin-edta and were centrifuged. The pellet of cells was then resuspended in PBS and washed three times with PBS and pelleted. The total RNA isolated using the Qiagen RNeasy Mini kit (Qiagen Inc.) according to the handbook protocol. The quantity of RNA was measured spectrophotometrically at Absorbance 260 nm (1Abs260=40 ug/ml) and the quality of RNA A260:A280 ratio was measured between 1.8 to 2.0. For each experiment, 0.9 μg of total RNA was converted to cDNA using the RT^2 first strand kit (SABiosciences, Qiagen Inc.) and analyzed on the SABiosciences (Qiagen Inc.) PAHS-024C Human angiogenesis array with an Applied Biosciences 7900HT real-time PCR machine according to manufactures protocol. The threshold cycle (Ct) and baseline for each well was determined by instruments software and the resulting Ct values were analyzed using SABiosciences PCR Array Data Analysis Web-based Software (http://sabiosciences.com/pcrarraydataanalysis.php). β-Actin and/or GADPH were used as housekeeping gene for determining fold regulation.

HUVEC tube formation = assay: HUVEC tubulogenesis assay on Matrigel; type: cell-based, human; conditions: for neovascularization (tube formation) in HUVEC: after 30 min of treatment; for tube formation after treatment: HUVEC on Matrigel, 30 min treatment period
Procedure: Endothelial cell tubulogenesis assay was performed seeding 20,000 cells of HUVECs in 96-well plate that was pre-coated with 0.1% gelatin and 40 ul of Matrigel and treated with increasing concentration of phosphaplatin compounds, RRD2 and RRD4 in medium 199 (Lonza Walkersville, Frederick, Md.) supplemented with 20% heat-inactivated FBS (Hyclone, Logan, Utah), 100 μg/ml heparin (Sigma Aldrich, St. Louis, Mo.), 100 U/ml penicillin-streptomycin (Lonza Walkersville, Frederick, Md.) and endothelial mitogen (Biomedical Technologies, Stoughton, Mass.). In brief, Matrigel was defrosted overnight at 4° C. and the 0.1% gelatin coated 96 well plate was chilled and 40 μl of Matrigel was coated into each well. The plate was then incubated at 37° C. and 5% CO2 for 1 hour. The 96-well plate was seeded with 2×10^4 cells of HUVECs. After a 24 hour period of cell attachment each well was treated with the increasing concentration of Pt compounds overnight (8-10 hours) at 37° C. and 5% CO2. The capillary/tube formation structures formed were then recorded by an inverted microscope and quantified. Cells were counted in total visual area of 1.575 mm.
To further investigate the anti-angiogenetic behavior of RRD2 and RRD4 on endothelial cell tube formation, we treated HUVECs with different concentration of RRD2 and RRD4 (compounds A and D in FIG. 2) onto Matrigel. After 30 min of incubation with tube-like structures were monitored with an inverted microscope at 40× magnification.

PEDF protein [2] = assay: PEDF protein expression by immunofluorescence in A2780 cells; type: cell-based, human; conditions: for PEDF protein expression by immunofluorescence: 12 hour treatment; for PEDF overexpression, time dependence: 3 to 24 hr, 20 and 25 μM
Procedure: A 6-well plate containing pretreated cover slips was seeded with 500-1000 cells of A2780 human ovarian cancer cell lines in 2.5 ml of RPMI 1640 media (Lonza Walkersville, Frederick, Md.) containing 2.0 mM L-glutamine and supplemented with 10% heat inactivated fetal bovine serum, FBS (Hyclone, Logan, Utah), and 0.25 units/mL recombinant human insulin (Sigma Aldrich, St. Louis, Mo.), 100 U/ml penicillin-streptomycin (Lonza Walkersville, Frederick, Md.). Those cells reaching to 80% confluency were treated with phosphaplatin compounds, RRD2 and RRD4 at various time intervals (3, 6, 12, or 24 hours). Each of the cover slip was washed with PBS three times, and the cells were fixed with freshly prepared 4% paraformaldehyde at room temperature for 20 minutes. The fixed cells were then washed with PBS for three times. These cells were permeablized and blocked with 7.5% bovine serum albumin, BSA/PBS/0.01% triton-X100 at 37° C. for 60 minutes followed by washing the cells with PBS twice. The cover slips were treated with a 1:300 dilution of Pigment epithelium-derived factor (PEDF; also known as serpin F1, SERPINF1) mouse primary antibody (Cell Signalling Technology Inc., Danvers, Mass.) in 7.5% BSA/PBS/0.01% triton for 12-15 hours 37° C. and washed with PBS for three times. The coverslips were incubated with secondary Alexa Fluor 488-conjugated anti-mouse IgG (FITC-Green) (Invitrogen, Carlsbad, Calif.) at a 1:5000 dilution in 7.5% BSA/PBS/0.01% triton-X100 for 1 hour at 37° C. in the dark. The cover-slips were then washed with PBS for another three times. In addition, some treatments were stained for beta-Actin and was stained with Phalloidin (Rhodamine) (Red) (Invitrogen, Carlsbad, Calif.) (7 ul/ml) in 7.5% BSA/PBS/0.01% triton-X100 for 1 hour at 37° C. in the dark. The moist cover-slips were then mounted onto a microscope slide with Ultracruz mounting media containing DAPI (4′,6-diamidino-2-phenylindole) (Blue) (Santa Cruz Biotechnology, Santa Cruz, Calif.) (for identifying the nucleus) and images were then collected on an Olympus FV-1000 inverted stage confocal microscope using a Plan Apo N 60×1.42NA oil immersion objective and processed by FluoView software.

PEDF protein [3] = assay: PEDF protein expression by Western blot in A2780 cells; type: cell-based, human; conditions: 3 hrs, 6 hrs and 12 hrs treatment
Procedure: Treated human ovarian cancer cells (approximately 1×10^6 cells in 60 mm^3 plates at 80-90% confluence) line with 20 μM RRD2 and 25 μM RRD4 for 3, 6 and 12 hrs was washed with PBS for three times. Total protein was extracted by treating the washed cells directly with 200 μl of RIPA (Sigma, St. Louis, Mo.) or MPER (Pierce, USA). Protein extract samples (50 μg) were separated by 12% SDS-PAGE and blotted onto polyvinylidene difluoride (PVDF) membranes. The blots were washed with TBST [10 mM Tris-HCl (pH 7.6), 150 mM NaCl, 0.1% Tween-20], blocked with 5% skim milk and 1% BSA overnight at 4 C, and incubated with the mouse anit-PEDF (Santa Cruz Biotechnology, USA) primary antibody at 1:500 dilutions in TBST with 5% skim milk and 1% BSA overnight at 4° C. The membrane was then washed TBST, and the primary antibodies were detected with secondary antibody goat anti-mouse IgG conjugated to horseradish peroxidase at 1:2500 dilution for 1.5 hours at room temperature. The blots were developed with enhanced chemiluminescence (ECL) (Pierce, USA) and exposed to X-ray film.

PEDF gene [4] = assay: Individual PEDF gene expression, two step qRT-PCR; type: cell-based, human; conditions: A2780 cells, Single gene expression, endogenous control GADPH
Procedure: Individual Gene expression for PEDF was assessed by two step qRT-PCR assay. First, RNA isolation and purification was done as described above. A total of 2 μg total RNA was used to reverse-transcribe the template into single-stranded cDNA using RT^2 first strand kit (SABiosciences, Qiagen Inc.). In the second step, the synthesized cDNA was subjected to qRT-PCR RT^2 Primer Set (PEDF) used with SYBR Green real-time PCR master mix detection and endogenous control β-actin and/or GADPH (Applied Biosystems, Foster City, Calif.). All PCR reactions involving cDNA samples from treated and untreated cells were run in triplicate. Quantitative real-time PCR reactions were carried out on the StepOne PCR machine, 48 well system (Applied Biosystems, Foster City, Calif.) according to manufactures protocol. Results were generated using the StepOne software v2.1. The 2^−ΔΔCt method was used to present the relative differences in the mRNA expression levels.

SMILES	effect on viability of ARPE19 retinal cells (ARPE19 cells)	Fold change expression of PEDF (PEDF gene [1]; 5 uM)	Fold change expression of PEDF (PEDF gene [1]; 20 uM)	inhibition of HUVEC tube formation on Matrigel (HUVEC tube formation; 0.5 μM, 30 min incubation)	neovascularization (tube formation) in HUVEC (HUVEC tube formation; 1 μM)	tube formation after treatment (HUVEC tube formation)	PEDF protein expression by immunofluorescence (PEDF protein [2]; A2780, 20 μM)	PEDF overexpression, time dependence (PEDF protein [2]; human ovarian cells)	treatment time of maximum PEDF protein expression (PEDF protein [2]; immune-fluorescence experiments, human ovarian cells)	PEDF protein expression by Western Blotting (PEDF protein [3]; A2780, 20 μM)	Fold change expression of PEDF (PEDF gene [1]; 13 uM)	neovascularization (tube formation) in HUVEC (HUVEC tube formation; 10 μM)	PEDF protein expression by immunofluorescence (PEDF protein [2]; A2780, 25 μM)	PEDF protein expression by Western Blotting (PEDF protein [3]; A2780, 25 μM)	Fold change expression of PEDF (PEDF gene [4]; 25 uM, 3 hr)	Fold change expression of PEDF (PEDF gene [4]; 50 uM, 24 hr)
NC1CCCCC1N.O=P1(O)[O][Pt][O]P(=O)(O)O1 [RRD2, R,R-trans-1,2-cyclohexane-diamine (dihydrogen pyrophospahto)platinum(II)]	no effect	2.64 fold	5.79 fold	more than 85%	inhibition	No tube formation was evident	overexpression; also recorded: overexpressed or upregulated	time dependent overexpression	12 h	overexpression; also recorded: upregulated	–	–	–	–	–	–
NC1CCCCC1N.O=P1(O)OP(=O)(O)[O][Pt]([OH])([OH])[O]1 [RRD4, R,R-trans-1,2-cyclohexane-diamine-trans-dihydroxo(dihydrogenpyrophospahto) platinum(IV)]	no effect	–	–	–	–	No tube formation was evident	–	time dependent overexpression	–	–	2.05 fold	inhibition	overexpression; also recorded: overexpressed or upregulated	overexpression; also recorded: upregulated	2.1 fold	4.1 fold
